Data from ChEMBL document CHEMBL1158199, “Constituents of Ardisia japonica and their in vitro anti-HIV activity” (J Nat Prod, 1996).
Converted amounts (≈) assume the structure as drawn.

Legend:
[1] = tested on: Human immunodeficiency virus 1; test: Antiviral activity against HIV1 MN in human C8166 cells assessed as reduction of antigen gp120 production by ELISA; assay type: functional, organism-based; details: Human immunodeficiency virus 1, MN
[2] = Cytotoxicity against human C8166 cells by XTT assay; assay type: cell-based; details: read-out: TC50 (the source's name)
[3] = Selectivity index, ratio of […] for human […] cells
[4] = Inhibition of monoclonal antibody ADP358/HIV1 gp120 interaction at 500 mg/mL
[5] = Inhibition of monoclonal antibody ADP358/HIV1 gp120 interaction at 100 mg/mL
[6] = Inhibition of monoclonal antibody ADP358/HIV1 gp120 interaction at 20 mg/mL
[7] = Inhibition of monoclonal antibody ADP358/HIV1 gp120 interaction at 4 mg/mL
[8] = Inhibition of monoclonal antibody ADP358/HIV1 gp120 interaction at 0.8 mg/mL
[9] = Inhibition of HIV1 recombinant gp120/sCD4 interaction by ELISA
[10] = tested on: Human immunodeficiency virus 1; test: Antiviral activity against HIV1 3B in human C8166 cells assessed as neutralization of virus infectivity treated prior infection measured after 60 mins at 37 degC; assay type: functional
[11] = Inhibition of monoclonal antibody ADP358/HIV1 gp120 interaction at 400 mg/mL
[12] = Inhibition of monoclonal antibody ADP358/HIV1 gp120 interaction at 80 mg/mL
[13] = Inhibition of monoclonal antibody ADP358/HIV1 gp120 interaction at 16 mg/mL
[14] = Inhibition of monoclonal antibody ADP358/HIV1 gp120 interaction at 3.2 mg/mL

SMILES | EC50 [1] [µg/mL] | CC50 [2] [µg/mL] | Selectivity Index [3] | inhibition [4] [%] | inhibition [5] [%] | inhibition [6] [%] | inhibition [7] [%] | inhibition [8] [%] | Activity [9] | Activity [10] [%] | inhibition [11] [%] | inhibition [12] [%] | inhibition [13] [%] | inhibition [14] [%]
COc1cc2c(c(OC)c1OC)[C@H]1O[C@@H](CO)[C@H](O)[C@@H](O)[C@@H]1OC2=O | 200 (≈ 561 µM) | 250 (≈ 702 µM) | 1.25 |  |  |  |  |  |  |  |  |  |  | 
COc1c(O)cc2c(c1O)[C@@H]1O[C@H](CO)[C@@H](O)[C@H](O)[C@H]1OC2=O [BERGENIN] | 40 (≈ 122 µM) | > 1000 | >25 | 92 | 84 | 62 | 39 | 0 |  |  |  |  |  | 
O=C1O[C@H]2[C@H](O)[C@@H](O)[C@H](CO)O[C@@H]2c2c1cc(O)c(O)c2O [NORBERGENIN] | 20 (≈ 63.6 µM) | > 500 | >25 |  |  |  |  |  | Dose-dependent effect | 99 | 84 | 69 | 57 | 33
